What was measured:
Assay type in all cases: physicochemical
[1] = Estimated solubility at 55° C. in recrystallization solvents; conditions: organic solvent or mixture, thermodynamic from solid
Procedure: Recrystallization of Compound 1 Crystalline Form A was investigated in various solvent conditions. […] One of water, heptane or IPE was added as an anti-solvent to maintain the saturation state. Recrystallization in heptane yielded a sufficient amount of solids for analysis after gradual cooling. […] Crystals obtained from THF, trifluoroethanol, THF/heptane, chloroform/heptane, chloroform/IPE and trifluoroethanol/IPE were characterized as solvates by XRPD and TGA/DSC analysis. Crystals obtained from all other solvents were confirmed to be Compound 1 Crystalline Form A based on XRPD analysis.

[2] = Hygroscopicity of crystalline forms
[3] = Solubility in 200 mM phosphate buffer (pH 6.8); conditions: for solubility at 20 h: phosphate buffer, pH 6.8, aqueous buffer, thermodynamic from solid; for solubility: 20 hrs, hemihydrate
Procedure: About 2 mg of Compound 1 Crystalline Form A made in example 2 or Compound 1 Crystalline Form I made in example 3-2 and 2 mL of 200 mM phosphate buffer (pH 6.8) were added into a glass test tube. The test tube was shaken vigorously and incubated at 10° C., 20° C., 30° C. or 40° C. for 20 hrs. After the incubation, the suspension was centrifuged and the supernatant was filtered through a 0.22 μm pore membrane filter. The filtrate solutions were diluted 2-fold with 50 mM sodium perchlorate buffer (pH 2.5)/acetonitrile (1/1, v/v). Concentration was determined by HPLC.

[4] = Chemical and optical stability of crystalline forms on storage
[5] = Solubility in water/DMSO at 60° C.; conditions: for solubility / solubility at 24 h: Water/DMSO at 60° C.; for solubility: hemihydrate; for solubility at 24 h: water/DMSO, 60 °C, organic solvent or mixture, thermodynamic from solid
Procedure: A solution of DMSO/water with known water content was added to a glass vial and heated to 60° C. Crystals of Compound 1 Crystalline Form I or Compound 1 Crystalline Form A were added to the vial until a suspension was obtained. The suspension was stirred via magnetic stirring and incubated for 24 hrs at 60° C. After incubation, the suspension was filtered at 60° C. 10 μL of the filtrate was sampled and diluted with 990 μL of acetonitrile/water (1/1, v/v). Sample concentration of Compound 1 was determined by HPLC. […] The experimental solubility results are summarized below in Tables 5 and 6.

[6] = 60° C./75% relative humidity (open) for at least eight weeks
[7] = 80° C. (closed) for at least eight weeks

Cc1[nH]ncc1-c1cc2nc([C@@H]3CC4CCN3CC4)[nH]c(=O)c2s1 [Compound 1 Crystalline Form A, 2-[(2S)-1-azabicyclo[2.2.2]oct-2-yl]-6-(3-methyl-1H-pyrazol-4-yl)thieno[3,2-d]pyrimidin-4(3H)-one hemihydrate]
solubility ([1]; solvent Acetone): < 2 mg/mL
solubility ([1]; solvent Acetonitrile): < 2 mg/mL
solubility ([1]; solvent Chloroform): 2.8 mg/mL
solubility ([1]; solvent Ethanol): 10.5 mg/mL
solubility ([1]; solvent Ethyl acetate): < 2 mg/mL
solubility ([1]; solvent Formamide): 10 mg/mL
solubility ([1]; solvent IPA): 6.7 mg/mL
solubility ([1]; solvent MEK): 2.9 mg/mL
solubility ([1]; solvent Methanol): 33.3 mg/mL
solubility ([1]; solvent THF): 9.1 mg/mL
solubility ([1]; solvent Toluene): < 2 mg/mL
solubility ([1]; solvent Trifluoroethanol): > 100 mg/mL
Hygroscopicity ([2]; at 25° C.): not hygroscopic
Hygroscopicity ([2]; at 40° C.): not hygroscopic
solubility at 20 h ([3]; 10 °C): 0.102 mg/mL
solubility at 20 h ([3]; 20 °C): 0.104 mg/mL
solubility at 20 h ([3]; 30 °C): 0.115 mg/mL
solubility at 20 h ([3]; 40 °C): 0.136 mg/mL
Chemical and optical stability [4, 6]: chemically and optically stable
Chemical and optical stability [4, 7]: chemically and optically stable
solubility ([5]; 0 % water by volume): 153.8 mg/mL
solubility ([5]; 6 % water by volume): 73.4 mg/mL
solubility at 24 h ([5]; 8.5 % water by volume): 51 mg/mL
solubility at 24 h ([5]; 8.7 % water by volume): 44 mg/mL
solubility at 24 h ([5]; 9.8 % water by volume): 38.5 mg/mL
solubility at 24 h ([5]; 10.7 % water by volume): 32.1 mg/mL
solubility at 24 h ([5]; 11.3 % water by volume): 28.6 mg/mL
solubility at 24 h ([5]; 11.8 % water by volume): 25.7 mg/mL

Cc1[nH]ncc1-c1cc2nc([C@@H]3CC4CCN3CC4)[nH]c(=O)c2s1 [Compound 1 Crystalline Form I, 2-[(2S)-1-azabicyclo[2.2.2]oct-2-yl]-6-(3-methyl-1H-pyrazol-4-yl)thieno[3,2-d]pyrimidin-4(3H)-one hemihydrate]
Hygroscopicity ([2]; at 25° C.): not hygroscopic
Hygroscopicity ([2]; at 40° C.): not hygroscopic
solubility ([3]; 10 °C): 0.063 mg/mL
solubility ([3]; 20 °C): 0.071 mg/mL
solubility ([3]; 30 °C): 0.08 mg/mL
solubility ([3]; 40 °C): 0.099 mg/mL
Chemical and optical stability [4, 6]: chemically and optically stable
Chemical and optical stability [4, 7]: chemically and optically stable
Solubility in water/DMSO relative to Compound 1 Crystalline Form A ([5]; at 60° C. (FIG. 7)): lower
solubility at 24 h ([5]; 0 % water by volume): 134 mg/mL
solubility at 24 h ([5]; 3 % water by volume): 108 mg/mL
solubility at 24 h ([5]; 4 % water by volume): 92.2 mg/mL
solubility at 24 h ([5]; 4.5 % water by volume): 74.8 mg/mL
solubility at 24 h ([5]; 6 % water by volume): 65.8 mg/mL
solubility at 24 h ([5]; 8 % water by volume): 34.8 mg/mL

Source: patent publication US11746109B2, “Crystalline forms of 2-[(2S)-1-azabicyclo[2.2.2]oct-2-yl]-6-(3-methyl-1H-pyrazol-4-yl)thieno[3,2-d]pyrimidin-4(3H)-one hemihydrate” (TAKEDA PHARMACEUTICAL COMPANY LIMITED, priority 2016, dated 2023)
